Results: patent US9737517B2, “Pharmaceutical use of hexahydro-dibenzo[a,g]quinolizine compounds” (SHANGHAI INSTITUTE OF MATERIA MEDICA, CHINESE ACADEMY OF …, priority 2013, dated 2017)
Values joined by “and” are separate entries in the source; they are usually repeats but may differ in a detail not shown here. Equal values may be shown once. Read-outs that look alike come from different tables or passages of the source.

How the values were obtained:
[1] = Pharmacokinetics study in rats (gavage and intravenous); assay type: in vivo, SD rats; settings: rat
Description: Gavage administration to rats. 3 healthy SD rats (male, weighed 200-220 g) were fasted for 12 hours before the administration but were allowed to drink water. Compound DC037009 was formulated with 10% DMSO/10% Tween 80/80% saline and was administered by 20 mg/kg dose and the dosing volume was 10 mL/kg.
Intravenous administration to rats. 3 healthy SD rats (male, weighed 200-220 g) were fasted for 12 hours before the administration but were allowed to drink water. Compound DC037009 was formulated with 10% DMSO/10% Tween 80/80% saline and was administered via the rat tail vein injection by 10 mg/kg dose and the dosing volume was 5 mL/kg.
Intravenous administration: 5 min, 0.25, 0.5, 1.0, 2.0, 3.0, 5.0, 7.0, 9.0 and 24 hrs after administration.
At the above time points, 0.3 mL blood obtained from post-eye venous plexus of rat was set into a heparinized tube, which was 11000 rpm centrifuged for 5 min, and the plasma was separated and frozen at −20° C. in a refrigerator.

[2] = In vitro metabolism in dog liver microsomes; assay type: in vitro ADME
Description: (§1) The total volume of each incubation system was 200 μL, and the medium was 100 mM phosphate buffer solution (PBS, pH7.4) comprising a final concentration of 3 μM DC037009 and 2 mM NADPH. A37° C. water bath was used for incubation. After 3 minutes of pre-incubation, various liver microsomes protein were added into the buffer-substrate-cofactors mixture to start reaction. The concentration of liver microsomal protein of various species was 1.0 mg/mL. After reacting 60 min, the reaction was terminated with isovolumetric ice-cold acetonitrile. The total volume of blank was 200 μL, and the medium was 100 mM phosphate buffer solution (PBS, pH 7.4), comprising a final concentration of 3 μM DC037009 and heat inactivated microsomal proteins. All incubation samples were double.
(§2) A 150 μL sample from each of double incubation samples was mixed. A 300 μL of acetonitrile was added, mixed by vortexing for 1 min, and centrifuged 5 min (11000 rpm). The supernatant was placed in a 10 mL tube, and dried in 40° C. with nitrogen stream. The residue was dissolved with 100 μL methanol/water (1:9, v/v). A 10 μL sample was taken for UPLC/Q-TOF MS analysis.

[3] = In vitro metabolism in mouse liver microsomes; assay type: in vitro ADME, mice
Description: as §1, §2

[4] = biological target: hERG (Homo sapiens, UniProt Q12809); assay: Inhibition effect on hERG; assay type: cell-based
[5] = male, SD, plasma, po, 20 mg/kg, gavage 20 mg/kg, individual animals 1-3
[6] = male, SD, plasma, po, 20 mg/kg, gavage 20 mg/kg, mean of 3
[7] = gavage 20 mg/kg, individual animals 1-3, 20 mg/kg
[8] = 3 μM DC037009, 1.0 mg/mL microsomal protein, NADPH, 60 min, UPLC/Q-TOF MS

hERG, sequence (Q12809 whole entry): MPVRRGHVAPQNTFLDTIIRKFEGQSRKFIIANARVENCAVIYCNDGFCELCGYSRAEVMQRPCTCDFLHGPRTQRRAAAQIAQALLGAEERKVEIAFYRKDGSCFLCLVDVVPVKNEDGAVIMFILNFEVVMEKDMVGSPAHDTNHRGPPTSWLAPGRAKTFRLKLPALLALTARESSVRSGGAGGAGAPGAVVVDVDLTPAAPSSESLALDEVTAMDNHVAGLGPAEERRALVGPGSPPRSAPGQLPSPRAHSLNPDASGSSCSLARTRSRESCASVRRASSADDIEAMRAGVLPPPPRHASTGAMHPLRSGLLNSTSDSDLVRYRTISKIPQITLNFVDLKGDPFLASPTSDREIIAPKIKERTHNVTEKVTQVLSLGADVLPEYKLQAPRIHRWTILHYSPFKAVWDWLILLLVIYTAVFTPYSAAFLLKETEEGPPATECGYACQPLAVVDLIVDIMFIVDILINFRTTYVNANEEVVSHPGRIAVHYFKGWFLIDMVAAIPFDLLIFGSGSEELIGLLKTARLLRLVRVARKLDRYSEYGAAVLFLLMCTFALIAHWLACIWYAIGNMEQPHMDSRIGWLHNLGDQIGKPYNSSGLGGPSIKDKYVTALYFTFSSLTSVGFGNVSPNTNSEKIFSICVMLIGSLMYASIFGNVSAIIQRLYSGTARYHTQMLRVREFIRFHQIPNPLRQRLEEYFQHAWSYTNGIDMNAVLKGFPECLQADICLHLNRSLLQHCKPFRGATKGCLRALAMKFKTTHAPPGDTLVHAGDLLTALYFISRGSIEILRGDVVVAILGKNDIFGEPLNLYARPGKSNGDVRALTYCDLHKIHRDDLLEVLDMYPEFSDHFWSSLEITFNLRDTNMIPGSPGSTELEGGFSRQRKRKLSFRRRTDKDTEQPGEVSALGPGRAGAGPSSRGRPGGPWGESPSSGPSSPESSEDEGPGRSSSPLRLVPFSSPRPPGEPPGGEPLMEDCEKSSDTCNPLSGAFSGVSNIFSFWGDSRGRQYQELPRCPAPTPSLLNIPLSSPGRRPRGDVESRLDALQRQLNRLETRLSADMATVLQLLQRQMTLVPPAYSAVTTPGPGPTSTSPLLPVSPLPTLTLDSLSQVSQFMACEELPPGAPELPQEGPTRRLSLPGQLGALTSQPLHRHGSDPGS

## COc1cc2c(cc1OC)CN1CCc3cc4c(cc3[C@@H]1C2)OCO4 [DC037009, S-(−)-2,3-methylenedioxy-10,11-dimethoxy-5,8,13,13a-tetrahydro-6H-dibenzo[a,g]quinolizine]
[1]; male, SD, plasma, oral, gavage 20 mg/kg versus intravenous 10 mg/kg
  bioavailability: 34.2%
[1]; male, SD, plasma, intravenous injection 10 mg/kg, read-out: plasma clearance rate CL (converted)
  clearance: 39.7 mL/min/kg
[1]; male, SD, plasma, intravenous injection 10 mg/kg, read-out: volume distribution stead state Vss
  Vd: 3.49 ± 0.24 L/kg
[1]; male, SD, plasma, iv, 10 mg/kg, intravenous injection 10 mg/kg
  half-life: 5.44 ± 0.85 h
[1]; male, SD, plasma, iv, 10 mg/kg, intravenous injection 10 mg/kg, read-out: AUC0-t
  AUC0-t: 4200 ± 141 ng·h/mL
[1]; [5]
  AUC(0-inf): 2630 ng·h/mL
  half-life: 4.2 h
[1]; male, SD, plasma, po, 20 mg/kg, gavage 20 mg/kg, individual animals 1-3, read-out: AUC0-t
  AUC0-t: 2570 ng·h/mL
[1]; male, SD, plasma, po, 20 mg/kg, gavage 20 mg/kg, individual animals 1-3, read-out: Cmax
  Cmax: 289 ng/mL
[1]; male, SD, plasma, po, 20 mg/kg, gavage 20 mg/kg, individual animals 1-3, read-out: MRT
  MRT: 6.45 h
[1]; male, SD, plasma, po, 20 mg/kg, gavage 20 mg/kg, individual animals 1-3, read-out: Tmax
  Tmax: 0.5 h
[1]; [6]
  AUC(0-inf): 2890 ng·h/mL
  half-life: 3.26 ± 0.82 h
[1]; male, SD, plasma, po, 20 mg/kg, gavage 20 mg/kg, mean of 3, read-out: AUC0-t
  AUC0-t: 2870 ± 798 ng·h/mL
[1]; male, SD, plasma, po, 20 mg/kg, gavage 20 mg/kg, mean of 3, read-out: Cmax
  Cmax: 453 ± 147 ng/mL
[1]; male, SD, plasma, po, 20 mg/kg, gavage 20 mg/kg, mean of 3, read-out: MRT
  MRT: 5.04 h
[1]; male, SD, plasma, po, 20 mg/kg, gavage 20 mg/kg, mean of 3, read-out: Tmax
  Tmax: 0.67 ± 0.29 h
[1]; [7]
  AUC0-t: 2260 ng·h/mL and 3771 ng·h/mL
  AUC0-∞: 2265 ng·h/mL and 3779 ng·h/mL
  Cmax: 494 ng/mL and 575 ng/mL
  MRT: 4.00 h and 4.67 h
  Tmax: 1.00 h
  t1/2: 2.89 h and 2.70 h
[1]; gavage 20 mg/kg, mean of 3, 20 mg/kg
  AUC0-t: 2260 ng·h/mL
[2]; [8]
  Mass area, dog: 171.3
[2]; 60 min incubation
  kinds of metabolites detected in dog liver microsome: six
  metabolic stability in dog liver microsome: in second place
[3]; [8]
  Mass area, mice: 6.3
[3]; 60 min incubation
  kinds of metabolites detected in mouse liver microsome: eight
  metabolic stability in mouse liver microsome: unstable
[4]
  antagonistic activity to α1A-receptor relative to inhibitory activity on hERG: 272 folds
[4]; hERG
  IC50: 8.1 µM
  Maximum inhibition rate (%): 84.7%
